What was measured:
[1] = target: T1, aurora-A (Homo sapiens, UniProt O14965); experiment: Aurora-A (human) kinase assay; type: biochemical; settings: Table 3, values without asterisk; read-out: Kinase inhibition Aurora A
T1 construct: purchased Upstate, Dundee, UK
T1 sequence (O14965 1-403): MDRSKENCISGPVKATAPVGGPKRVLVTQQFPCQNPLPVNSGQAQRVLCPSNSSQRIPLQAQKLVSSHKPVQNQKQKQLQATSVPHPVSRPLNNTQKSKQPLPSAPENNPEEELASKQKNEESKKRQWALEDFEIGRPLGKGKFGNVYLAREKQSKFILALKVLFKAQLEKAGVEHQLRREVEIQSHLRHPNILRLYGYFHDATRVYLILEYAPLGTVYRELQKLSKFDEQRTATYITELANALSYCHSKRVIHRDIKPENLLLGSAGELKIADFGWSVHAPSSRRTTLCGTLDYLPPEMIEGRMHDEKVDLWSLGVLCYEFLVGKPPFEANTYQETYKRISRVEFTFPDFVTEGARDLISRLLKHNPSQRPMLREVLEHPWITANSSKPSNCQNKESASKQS
Method: (§1) This was achieved by measurement of incorporation of radioactive phosphate from ATP into Kemptide substrate (LRRASLG), upon phosphorylation by commercially obtained aurora-A (human, Upstate, Dundee, UK). Assays were performed using 96-well plates and appropriate assay buffers (20 mM Tris, 25 mM β-glycerophosphate, 5 mM EGTA, 1 mM DTT, 1 mM sodium vanadate, pH 7.5), into which were added 2-5 ng of active enzyme with 500 μM substrate (Kemptide). The reactions were initiated by addition of MgATP mix (15 mM MgCl2+100 μM ATP with 15-25 kBq per well of [γ-^32P]-ATP) and mixtures incubated for 30 min at 30° C. Reactions were stopped by addition of an equal volume of 75 mM aq orthophosphoric acid, followed by filtration through p81 filterplates (Whatman Polyfiltronics, Kent, UK). After washing 4 times with 75 mM aq orthophosphoric acid, plates were dried, scintillant added and incorporated radioactivity measured in a scintillation counter (TopCount, Packard Instruments, Pangbourne, Berks, UK). Compounds for kinase assay were made up as 10 mM stocks in DMSO and diluted into 10% DMSO in assay buffer. Data was analysed using curve-fitting software (XLfit version 4.0.2, IDBS, Guildford, Surrey, UK) to determine IC50 values (concentration of test compound which inhibits kinase activity by 50%).

[2] = system: Mia-PaCa-2; experiment: MTT cytotoxicity assay, Mia-PaCa-2; type: cell-based; settings: Homo sapiens, after incubation
Method: (§2) The compounds of the invention were subjected to a standard cellular proliferation assay using human tumour cell lines obtained from the ATCC (American Type Culture Collection, 10801 University Boulevard, Manessas, Va. 20110-2209, USA). […] C.; Thomas, D. G.; Darling, J. L. Anti Cancer Drugs 1996, 7, 331-8; Loveland, B. E.; Johns, T. G.; Mackay, 1. R.; Vaillant, F.; Wang, Z. X.; Hertzog, P. J. Biochemistry International 1992, 27, 501-10). In short: cells were seeded into 96-well plates according to doubling time and incubated overnight at 37° C. […] MTT was made up as a stock of 5 mg/mL in cell media and filter-sterilised. Media was removed from cells followed by a wash with 200 μL PBS. MTT solution was then added at 20 μL per well and incubated in the dark at 37° C. for 4 h MTT solution was removed and cells again washed with 200 μL PBS. MTT dye was solubilised with 200 μL per well of DMSO with agitation. Absorbance was read at 540 nm and data analysed using curve-fitting software (GraphPad Prism version 3.00 for Windows, GrapbPad Software, San Diego Calif. USA) to determine IC50 values (concentration of test compound which inhibits cell growth by 50%).

[3] = system: A2780; experiment: MTT cytotoxicity assay, A2780; type: cell-based; settings: Homo sapiens, after incubation
Method: as §2

[4] = target: T2, aurora-B (Homo sapiens, UniProt Q96GD4); experiment: Aurora-B (human) kinase assay; type: biochemical; settings: Table 3; read-out: Kinase inhibition Aurora B
T2 construct: purchased Upstate, Dundee, UK
Method: as §1, with “obtained aurora-B” for “obtained aurora-A”, “added 75” for “added 2-5”, “of pre-activated” for “of active”, “for 60” for “for 30”
Aurora-B (human, Upstate, Dundee, UK) was pre-activated immediately prior to kinase assay in appropriate buffers (20 mM Tris, 25 mM β-glycerophosphate, 5 mM EGTA, 1 mM DTT, 1 mM sodium vanadate, pH 7.5) by incubating 15 μg of enzyme with 4 μg INCENP (Upstate, Dundee, UK) in the presence of MgATP mix (15 mM MgCl2+100 μM ATP) for 15 min at 30° C.

T2 sequence (Q96GD4 whole entry): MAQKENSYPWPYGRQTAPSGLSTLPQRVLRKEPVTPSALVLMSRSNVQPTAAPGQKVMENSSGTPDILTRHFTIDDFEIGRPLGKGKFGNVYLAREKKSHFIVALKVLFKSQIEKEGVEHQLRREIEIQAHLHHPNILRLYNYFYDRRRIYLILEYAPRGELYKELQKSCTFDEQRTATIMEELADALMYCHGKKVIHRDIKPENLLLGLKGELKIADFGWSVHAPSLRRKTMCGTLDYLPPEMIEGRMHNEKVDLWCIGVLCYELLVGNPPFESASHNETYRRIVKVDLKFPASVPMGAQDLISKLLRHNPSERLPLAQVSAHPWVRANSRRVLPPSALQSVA

| SMILES | IC50 [1] [nM] | other results |
| --- | --- | --- |
| COc1cc(Nc2nccc(-c3c[nH]c4ccccc34)n2)cc(OC)c1 [Compound 14, N-(3,5-dimethoxyphenyl)-4-(1H-indol-3-yl)pyrimidin-2-amine] | 563 | – |
| Cn1cc(-c2ccnc(Nc3ccc(N4CCOCC4)cc3)n2)c2ccccc21 [Compound 15, 4-(1-methyl-1H-indol-3-yl)-N-(4-morpholin-4-ylphenyl)pyrimidin-2-amine] | 370 | – |
| CC(=O)N1CCN(c2ccc(Nc3nccc(-c4cn(C)c5ccccc45)n3)cc2)CC1 [Compound 16, 4-(1-methyl-1H-indol-3-yl)-N-(4-acetylpiperazine-1-ylphenyl)pyrimidin-2-amine] | 235 | – |
| c1ccc2c(-c3ccnc(Nc4ccc5c(c4)OCO5)n3)c[nH]c2c1 [Compound 17, N-1,3-benzodioxol-5-yl-4-(1H-indol-3-yl)pyrimidin-2-amine] | 742 | – |
| O=C(C1CC1)n1cc(-c2ccnc(Nc3ccc(N4CCOCC4)cc3)n2)c2ccccc21 [Compound 18, 4-[1-(cyclopropylcarbonyl)-1H-indol-3-yl]-N-(4-morpholin-4-ylphenyl)pyrimidin-2-amine] | 3360 | – |
| CC(=O)n1cc(-c2ccnc(Nc3ccc(N4CCOCC4)cc3)n2)c2ccccc21 [Compound 19, 4-(1-acetyl-1H-indol-3-yl)-N-(4-morpholin-4-ylphenyl)pyrimidin-2-amine] | 2190 | – |
| CN1CCN(c2ccc(Nc3nccc(-c4c[nH]c5ccccc45)n3)cc2)CC1 [Compound 20, 4-(1H-indol-3-yl)-N-(4-methylpiperazin-1-ylphenyl)pyrimidin-2-amine] | 434 | – |
| COc1cccc2c(-c3ccnc(Nc4ccc(N5CCN(C(C)=O)CC5)cc4)n3)c[nH]c12 [Compound 21, 4-(7-methoxy-1H-indol-3-yl)-N-(4-acetylpiperazin-1-ylphenyl)pyrimidin-2-amine] | 234 | IC50 [2]: 1040 nM |
| COc1ccc2c(-c3ccnc(Nc4ccc(N5CCN(C(C)=O)CC5)cc4)n3)c[nH]c2c1 [Compound 24] | 210 | IC50 [2]: 723 nM; IC50 [3]: 576 nM |
| CC(=O)N1CCN(c2ccc(Nc3nccc(-c4c[nH]c5c(Cl)cccc45)n3)cc2)CC1 [Compound 25] | 559 | – |
| CC(=O)N1CCN(c2ccc(Nc3nccc(-c4c[nH]c5cc(F)ccc45)n3)cc2)CC1 [Compound 26] | 194 | IC50 [4]: 175 nM |
| CC(=O)N1CCN(c2ccc(Nc3nccc(-c4c[nH]c5ccccc45)n3)cc2C)CC1 [Compound 27, 4-(1H-indol-3-yl)-N-[(4-acetylpiperazin-1-yl)-3-methylphenyl]pyrimidin-2-amine] | 276 | IC50 [4]: 365 nM |
| Cc1cc(Nc2nccc(-c3c[nH]c4ccccc34)n2)ccc1N1CCSCC1 [Compound 28, 4-(1H-indol-3-yl)-N-(3-methyl-4-thiomorpholin-4-ylphenyl)pyrimidin-2-amine] | 856 | IC50 [4]: 636 nM |
| C[C@@H]1CN(c2ccc(Nc3nccc(-c4c[nH]c5ccccc45)n3)cc2)C[C@H](C)O1 [Compound 29, 4-(1H-indol-3-yl)-N-[(2R,6S)-2,6-dimethylmorpholin-4-ylphenyl]pyrimidin-2-amine] | 386 | – |
| C[C@H]1CN(c2ccc(Nc3nccc(-c4c[nH]c5ccccc45)n3)cc2)C[C@H](C)O1 [Compound 30, 4-(1H-indol-3-yl)-N-[(2S,6S)-2,6-dimethylmorpholin-4-ylphenyl]pyrimidin-2-amine] | 1250 | – |
| CC1CC(C)CN(c2ccc(Nc3nccc(-c4c[nH]c5ccccc45)n3)cc2)C1 (stereo not shown) [Compound 31, 4-(1H-indol-3-yl)-N-(3,5-dimethylpiperidin-1-ylphenyl)pyrimidin-2-amine] | 4510 | – |

— patent US20090318446A1, “4-(1H-Indol-3-yl)-Pyrimidin-2-Ylamine Derivatives and Their Use in Therapy” (Cyclacel Limited, priority 2005, published 2009)
